Measurements from patent publication US11795169B2, “MAP4K4 inhibitors” (IMPERIAL COLLEGE INNOVATIONS LIMITED, priority 2017, dated 2023).
Like-named read-outs stand apart in the source and are kept apart here. Blank lines part the entries; values can stand above or below the compound they belong to.

How the values were obtained:
[1] = system: CorV.4U cardiomyocytes (hiPSC-CMs); assay: Protection of CorV.4U cardiomyocytes from H2O2 or menadione (luminescent cell viability assay, human cardiac troponin assay); assay type: cell-based; conditions: Homo sapiens, Cardiomyocyte; read-out: EC50, protection of human cardiomyocytes
Description: To substantiate the hypothesis that pharmacological inhibition of MAP4K4 would confer resistance to cell death in human cardiomyocytes, cytoprotection was next assessed using hiPSC-CMs.

GSK3β = GSK3β (Homo sapiens (Human), UniProt P49841); assay: Kinase selectivity panel: GSK3β; assay type: biochemical; conditions: for IC50: read-out: pIC50 GSK3β (converted)
Description: (§1) Compounds of the present invention were screened for their inhibitory activity against MAP4K4, versus selected off-target hits found with early members of this chemical series. MAP4K4 kinase activity was monitored using the CisBio HTRF Transcreener ADP assay, acompetitive immunoassay with a reproducible Z′>0.6. In the detection step, endogenous ADP and d2-labeled ADP compete for binding an anti-ADP monoclonal antibody labelled with Eu^3+ cryptate. A ratiometric fluorescent read-out is used at 665 and 620 nm. […] Assays were run in Greiner low volume plates with a final reaction volume of 10 μl. The MAP4K4 inhibition data are provided in Table 33 below for selected compounds of the present invention. The data has been categorised based on the IC50 value of the compound as “A”, “B” or “C”.
(§2) The data in Table 34 also provides the fold selectivity of the two compounds in favour of MAP4K4 over the tested kinase. The fold selectivity is indicated in parenthesis.

GLK/MAP4K3 = GLK/MAP4K3 (Homo sapiens (Human), UniProt Q8IVH8); assay: Kinase selectivity panel: GLK/MAP4K3; assay type: biochemical; conditions: for IC50: read-out: pIC50 GLK/MAP4K3 (converted)
Description: as §1, §2

FLT3 = FLT3 (Homo sapiens (Human), UniProt P36888); assay: Kinase selectivity panel: FLT3; assay type: biochemical; conditions: for IC50: read-out: pIC50 FLT3 (converted)
FLT3, sequence (P36888 27-993, species assumed): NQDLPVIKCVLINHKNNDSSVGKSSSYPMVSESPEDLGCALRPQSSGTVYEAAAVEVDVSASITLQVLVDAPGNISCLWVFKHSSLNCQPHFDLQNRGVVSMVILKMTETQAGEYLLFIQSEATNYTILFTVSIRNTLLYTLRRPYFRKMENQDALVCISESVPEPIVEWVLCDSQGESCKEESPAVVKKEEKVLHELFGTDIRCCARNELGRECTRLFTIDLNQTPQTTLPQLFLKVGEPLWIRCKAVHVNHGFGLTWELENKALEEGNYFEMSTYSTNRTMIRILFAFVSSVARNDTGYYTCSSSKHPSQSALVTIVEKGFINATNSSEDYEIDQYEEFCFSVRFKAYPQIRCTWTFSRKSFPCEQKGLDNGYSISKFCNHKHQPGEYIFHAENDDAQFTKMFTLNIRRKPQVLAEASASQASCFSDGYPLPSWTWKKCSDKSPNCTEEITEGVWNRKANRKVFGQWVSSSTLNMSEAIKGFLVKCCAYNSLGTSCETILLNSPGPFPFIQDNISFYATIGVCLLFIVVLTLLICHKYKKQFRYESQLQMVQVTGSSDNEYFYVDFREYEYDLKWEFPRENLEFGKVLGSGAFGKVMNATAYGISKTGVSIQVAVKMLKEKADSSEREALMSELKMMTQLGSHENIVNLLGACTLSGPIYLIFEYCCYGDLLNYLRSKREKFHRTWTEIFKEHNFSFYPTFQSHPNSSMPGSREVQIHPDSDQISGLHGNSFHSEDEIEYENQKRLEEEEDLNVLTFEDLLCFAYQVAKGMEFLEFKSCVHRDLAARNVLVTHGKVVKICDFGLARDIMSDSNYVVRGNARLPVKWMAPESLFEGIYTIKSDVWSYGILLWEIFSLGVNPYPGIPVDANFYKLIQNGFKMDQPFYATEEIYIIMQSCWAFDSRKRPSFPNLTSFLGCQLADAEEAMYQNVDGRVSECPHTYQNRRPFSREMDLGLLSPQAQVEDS
Description: as §1, §2

ABL1 = ABL1 (Homo sapiens (Human), UniProt P00519); assay: Kinase selectivity panel: ABL1; assay type: biochemical; conditions: for IC50: read-out: pIC50 ABL1 (converted)
ABL1, sequence (P00519 whole entry, species assumed): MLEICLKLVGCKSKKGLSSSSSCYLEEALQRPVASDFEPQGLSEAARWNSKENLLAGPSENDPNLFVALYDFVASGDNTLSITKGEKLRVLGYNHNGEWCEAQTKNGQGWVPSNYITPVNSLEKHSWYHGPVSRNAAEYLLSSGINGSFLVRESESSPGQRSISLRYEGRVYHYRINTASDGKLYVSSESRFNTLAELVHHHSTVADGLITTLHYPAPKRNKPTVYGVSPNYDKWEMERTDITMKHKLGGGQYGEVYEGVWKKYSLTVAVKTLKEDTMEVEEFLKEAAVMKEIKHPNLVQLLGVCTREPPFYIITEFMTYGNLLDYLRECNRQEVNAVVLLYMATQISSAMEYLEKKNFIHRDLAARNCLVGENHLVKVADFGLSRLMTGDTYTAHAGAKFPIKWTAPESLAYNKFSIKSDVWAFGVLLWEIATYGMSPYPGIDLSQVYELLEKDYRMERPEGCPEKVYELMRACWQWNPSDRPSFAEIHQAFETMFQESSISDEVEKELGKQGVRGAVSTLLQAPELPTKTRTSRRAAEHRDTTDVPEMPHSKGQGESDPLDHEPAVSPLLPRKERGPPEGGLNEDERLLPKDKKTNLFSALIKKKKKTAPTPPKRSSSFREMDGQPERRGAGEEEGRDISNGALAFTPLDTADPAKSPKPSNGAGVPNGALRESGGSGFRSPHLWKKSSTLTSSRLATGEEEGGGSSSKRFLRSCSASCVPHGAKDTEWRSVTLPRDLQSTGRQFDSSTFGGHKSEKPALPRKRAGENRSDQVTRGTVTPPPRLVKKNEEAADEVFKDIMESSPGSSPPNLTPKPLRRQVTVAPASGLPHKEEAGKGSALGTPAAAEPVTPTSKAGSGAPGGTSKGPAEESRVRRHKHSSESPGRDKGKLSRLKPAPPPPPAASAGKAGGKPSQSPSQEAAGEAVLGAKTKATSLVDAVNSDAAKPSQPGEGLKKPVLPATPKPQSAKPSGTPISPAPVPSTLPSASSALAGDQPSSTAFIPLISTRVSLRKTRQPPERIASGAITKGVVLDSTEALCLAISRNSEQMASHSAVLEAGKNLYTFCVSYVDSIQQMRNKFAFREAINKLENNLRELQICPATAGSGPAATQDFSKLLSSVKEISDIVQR
Description: as §1, §2

KHS/MAP4K5 = KHS/MAP4K5 (Homo sapiens (Human), UniProt Q9Y4K4); assay: Kinase selectivity panel: KHS/MAP4K5; assay type: biochemical; conditions: for IC50: read-out: pIC50 KHS/MAP4K5 (converted)
Description: as §1, §2

MINK1/MAP4K6 = MINK1/MAP4K6 (Homo sapiens (Human), UniProt Q8N4C8); assay: Kinase selectivity panel: MINK1/MAP4K6; assay type: biochemical; conditions: read-out: pIC50 MINK1/MAP4K6 (converted)
MINK1/MAP4K6, sequence (Q8N4C8 whole entry): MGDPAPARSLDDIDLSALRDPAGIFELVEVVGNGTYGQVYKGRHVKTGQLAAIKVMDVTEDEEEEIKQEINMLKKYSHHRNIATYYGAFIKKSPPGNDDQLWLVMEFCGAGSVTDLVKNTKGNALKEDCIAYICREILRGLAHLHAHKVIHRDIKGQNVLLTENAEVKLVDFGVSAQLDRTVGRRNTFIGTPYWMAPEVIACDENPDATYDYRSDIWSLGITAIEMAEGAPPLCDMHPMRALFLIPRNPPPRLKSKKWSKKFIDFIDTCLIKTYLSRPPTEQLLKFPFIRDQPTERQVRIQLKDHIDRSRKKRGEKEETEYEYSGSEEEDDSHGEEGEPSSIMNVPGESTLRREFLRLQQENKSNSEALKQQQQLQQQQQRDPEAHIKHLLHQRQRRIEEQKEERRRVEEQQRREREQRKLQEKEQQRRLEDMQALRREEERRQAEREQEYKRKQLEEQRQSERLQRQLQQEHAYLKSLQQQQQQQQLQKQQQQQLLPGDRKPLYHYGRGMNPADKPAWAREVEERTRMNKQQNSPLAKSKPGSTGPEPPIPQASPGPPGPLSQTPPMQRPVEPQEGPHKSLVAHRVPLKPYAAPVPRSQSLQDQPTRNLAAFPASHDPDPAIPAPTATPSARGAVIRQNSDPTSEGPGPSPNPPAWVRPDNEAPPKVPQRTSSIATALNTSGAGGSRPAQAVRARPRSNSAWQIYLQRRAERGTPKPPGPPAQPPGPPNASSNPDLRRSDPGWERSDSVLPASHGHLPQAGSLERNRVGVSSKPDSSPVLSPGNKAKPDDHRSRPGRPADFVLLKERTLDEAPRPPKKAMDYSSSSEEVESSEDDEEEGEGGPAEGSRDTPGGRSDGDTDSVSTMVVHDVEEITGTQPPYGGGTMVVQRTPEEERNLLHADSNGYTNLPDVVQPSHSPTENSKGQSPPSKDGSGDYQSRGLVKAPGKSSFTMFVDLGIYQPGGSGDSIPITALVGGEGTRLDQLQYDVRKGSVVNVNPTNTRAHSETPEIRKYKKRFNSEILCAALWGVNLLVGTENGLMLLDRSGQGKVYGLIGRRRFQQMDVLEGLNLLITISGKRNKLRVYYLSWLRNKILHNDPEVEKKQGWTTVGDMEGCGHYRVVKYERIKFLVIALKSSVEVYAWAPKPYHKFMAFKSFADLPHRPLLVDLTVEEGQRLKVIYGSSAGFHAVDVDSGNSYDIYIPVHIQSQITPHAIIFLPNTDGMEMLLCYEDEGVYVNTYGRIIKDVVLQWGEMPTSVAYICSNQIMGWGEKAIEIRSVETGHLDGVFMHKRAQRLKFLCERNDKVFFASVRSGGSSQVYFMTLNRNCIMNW
Description: as §1, §2

VEGFR = assay: Kinase selectivity panel: VEGFR; assay type: biochemical
Description: (§3) In the detection step, endogenous ADP and d2-labeled ADP compete for binding an anti-ADP monoclonal antibody labelled with Eu^3+ cryptate. […] Assays were run in Greiner low volume plates with a final reaction volume of 10 μl.
(§4) The fold selectivity is indicated in parenthesis.

GCK/MAP4K2 = GCK/MAP4K2 (Homo sapiens (Human), UniProt Q12851); assay: Kinase selectivity panel: GCK/MAP4K2; assay type: biochemical; conditions: for IC50: read-out: pIC50 GCK/MAP4K2 (converted)
Description: as §1, §2

MLK1/MAP3K9 = MLK1/MAP3K9 (Homo sapiens (Human), UniProt P80192); assay: Kinase selectivity panel: MLK1/MAP3K9; assay type: biochemical; conditions: for IC50: read-out: pIC50 MLK1/MAP3K9 (converted)
Description: as §1, §2

Aurora B = Aurora B (Homo sapiens (Human), UniProt Q96GD4); assay: Kinase selectivity panel: Aurora B; assay type: biochemical; conditions: for IC50: read-out: pIC50 Aurora B (converted)
Description: as §1, §2

[2] = target: human MAP4K4 kinase domain (Homo sapiens (Human), UniProt O95819); assay: MAP4K4 kinase activity, CisBio HTRF Transcreener ADP assay; assay type: biochemical
human MAP4K4 kinase domain, sequence (O95819 25-289): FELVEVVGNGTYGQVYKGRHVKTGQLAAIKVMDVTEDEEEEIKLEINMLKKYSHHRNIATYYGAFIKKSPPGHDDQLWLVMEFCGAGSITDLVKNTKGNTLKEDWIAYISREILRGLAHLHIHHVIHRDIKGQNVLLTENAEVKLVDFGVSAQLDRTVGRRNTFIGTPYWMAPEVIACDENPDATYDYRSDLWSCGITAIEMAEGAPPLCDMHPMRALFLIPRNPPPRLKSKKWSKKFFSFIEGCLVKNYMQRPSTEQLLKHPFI
Description: as §1

TNIK/MAP4K7 = TNIK/MAP4K7 (Homo sapiens (Human), UniProt Q9UKE5); assay: Kinase selectivity panel: TNIK/MAP4K7; assay type: biochemical; conditions: read-out: pIC50 TNIK/MAP4K7 (converted)
TNIK/MAP4K7, sequence (Q9UKE5 whole entry): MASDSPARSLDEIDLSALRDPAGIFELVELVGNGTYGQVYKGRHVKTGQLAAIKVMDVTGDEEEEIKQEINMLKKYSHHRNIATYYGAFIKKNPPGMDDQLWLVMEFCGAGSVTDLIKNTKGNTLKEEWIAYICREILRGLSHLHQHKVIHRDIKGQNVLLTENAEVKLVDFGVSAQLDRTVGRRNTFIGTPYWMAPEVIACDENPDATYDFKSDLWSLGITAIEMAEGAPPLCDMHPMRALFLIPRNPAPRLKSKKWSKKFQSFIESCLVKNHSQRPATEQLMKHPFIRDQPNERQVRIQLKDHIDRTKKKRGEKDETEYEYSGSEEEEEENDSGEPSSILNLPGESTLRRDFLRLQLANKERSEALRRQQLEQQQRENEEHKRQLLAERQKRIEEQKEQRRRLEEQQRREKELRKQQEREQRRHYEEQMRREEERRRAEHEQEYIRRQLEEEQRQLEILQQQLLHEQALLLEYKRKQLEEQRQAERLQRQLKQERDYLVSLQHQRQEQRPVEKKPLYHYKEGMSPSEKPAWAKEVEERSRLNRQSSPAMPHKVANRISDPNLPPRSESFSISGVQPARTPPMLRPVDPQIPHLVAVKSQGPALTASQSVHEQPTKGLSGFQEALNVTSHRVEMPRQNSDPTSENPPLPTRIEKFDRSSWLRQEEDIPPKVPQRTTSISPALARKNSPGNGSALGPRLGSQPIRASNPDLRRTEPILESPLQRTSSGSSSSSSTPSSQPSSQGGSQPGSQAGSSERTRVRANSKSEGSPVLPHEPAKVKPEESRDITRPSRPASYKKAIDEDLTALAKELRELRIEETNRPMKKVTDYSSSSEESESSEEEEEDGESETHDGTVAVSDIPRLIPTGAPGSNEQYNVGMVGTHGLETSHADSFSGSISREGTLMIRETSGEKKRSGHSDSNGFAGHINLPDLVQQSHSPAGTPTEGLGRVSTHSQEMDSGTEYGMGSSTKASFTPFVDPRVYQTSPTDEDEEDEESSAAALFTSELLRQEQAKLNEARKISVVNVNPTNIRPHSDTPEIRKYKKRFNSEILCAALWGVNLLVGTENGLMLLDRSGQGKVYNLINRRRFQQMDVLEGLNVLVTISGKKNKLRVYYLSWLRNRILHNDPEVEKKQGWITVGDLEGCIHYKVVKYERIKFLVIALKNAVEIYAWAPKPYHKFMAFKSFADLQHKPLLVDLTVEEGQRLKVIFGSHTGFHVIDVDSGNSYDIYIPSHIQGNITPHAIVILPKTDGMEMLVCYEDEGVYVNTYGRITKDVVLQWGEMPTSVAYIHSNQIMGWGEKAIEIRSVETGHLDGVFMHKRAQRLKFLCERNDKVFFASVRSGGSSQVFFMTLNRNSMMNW
Description: as §1, §2

MLK3/MAP3K11 = MLK3/MAP3K11 (Homo sapiens (Human), UniProt Q16584); assay: Kinase selectivity panel: MLK3/MAP3K11; assay type: biochemical; conditions: for IC50: read-out: pIC50 MLK3/MAP3K11 (converted)
Description: as §1, §2

NUAK = assay: Kinase selectivity panel: NUAK; assay type: biochemical
Description: as §3, §4

[3] = ATP at Km (10 μM), 0.5 nM kinase domain, 2 h, read-out: MAP4K4
[4] = read-out: pIC50 MAP4K4 (converted)

Structure (SMILES): CC(C)(O)CCOc1ccc(-c2cn(-c3ccccc3)c3nc[nH]c(=O)c23)cc1F [Ex-123]
- EC50 [1]: < 1000 nM

Structure (SMILES): CC(C)(O)CCOc1ccc(-c2cn(-c3ccccc3)c3nc[nH]c(=O)c23)c(F)c1 [Ex-107, 5-(2-fluoro-4-(3-hydroxy-3-methylbutoxy)phenyl)-7-phenyl-3,7-dihydro-4H-pyrrolo[2,3-d]pyrimidin-4-one]
- EC50 [1]: < 1000 nM

Structure (SMILES): CC(C)(O)CCOc1ccc(-c2cn(-c3ccccc3)c3nc[nH]c(=O)c23)cc1C#N [Ex-128]
- EC50 [1]: < 1000 nM

- fold selectivity for MAP4K4 over GSK3β (GSK3β): (5011) fold
- IC50 (GSK3β): 31600 nM
- fold selectivity for MAP4K4 over GLK/MAP4K3 (GLK/MAP4K3): (251) fold
- IC50 (GLK/MAP4K3): 1580 nM
- fold selectivity for MAP4K4 over FLT3 (FLT3): (1258) fold
- IC50 (FLT3): 7940 nM
- fold selectivity for MAP4K4 over ABL1 (ABL1): (501) fold
- IC50 (ABL1): 3160 nM
- fold selectivity for MAP4K4 over KHS/MAP4K5 (KHS/MAP4K5): (6) fold
- IC50 (KHS/MAP4K5): 39.8 nM
- IC50 (MINK1/MAP4K6): 6.31 nM
- fold selectivity for MAP4K4 over VEGFR (VEGFR): (125) fold
- pIC50 VEGFR (VEGFR): 6.1
- fold selectivity for MAP4K4 over GCK/MAP4K2 (GCK/MAP4K2): (31) fold
- IC50 (GCK/MAP4K2): 200 nM
- fold selectivity for MAP4K4 over MLK1/MAP3K9 (MLK1/MAP3K9): (13) fold
- IC50 (MLK1/MAP3K9): 79.4 nM
- fold selectivity for MAP4K4 over Aurora B (Aurora B): (1584) fold
- IC50 (Aurora B): 10000 nM
- IC50 [2, 3]: ≤ 100 nM
- IC50 [2, 4]: 6.31 nM
- IC50 (TNIK/MAP4K7): 10 nM
Structure (SMILES): O=c1[nH]cnc2c1c(-c1ccc(OCCCN3CCOCC3)cc1)cn2-c1ccccc1 [Ex-27]

- fold selectivity for MAP4K4 over GSK3β (GSK3β): (199) fold
- IC50 (GSK3β): 31600 nM
- fold selectivity for MAP4K4 over GLK/MAP4K3 (GLK/MAP4K3): (199) fold
- IC50 (GLK/MAP4K3): 31600 nM
- fold selectivity for MAP4K4 over FLT3 (FLT3): (199) fold
- IC50 (FLT3): 31600 nM
- fold selectivity for MAP4K4 over ABL1 (ABL1): (199) fold
- IC50 (ABL1): 31600 nM
- fold selectivity for MAP4K4 over KHS/MAP4K5 (KHS/MAP4K5): (199) fold
- IC50 (KHS/MAP4K5): 437 nM
- fold selectivity for MAP4K4 over MLK3/MAP3K11 (MLK3/MAP3K11): (199) fold
- IC50 (MLK3/MAP3K11): 31600 nM
- IC50 (MINK1/MAP4K6): 6.61 nM
- fold selectivity for MAP4K4 over VEGFR (VEGFR): (79) fold
- pIC50 VEGFR (VEGFR): 4.9
- fold selectivity for MAP4K4 over GCK/MAP4K2 (GCK/MAP4K2): (50) fold
- IC50 (GCK/MAP4K2): 7940 nM
- fold selectivity for MAP4K4 over MLK1/MAP3K9 (MLK1/MAP3K9): (25) fold
- IC50 (MLK1/MAP3K9): 3980 nM
- fold selectivity for MAP4K4 over Aurora B (Aurora B): (199) fold
- IC50 (Aurora B): 31600 nM
- IC50 [2, 3]: 100 to 1000 nM
- IC50 [2, 4]: 158 nM
- IC50 (TNIK/MAP4K7): 200 nM
Structure (SMILES): COc1cccc(-c2cn(-c3ccccc3)c3nc[nH]c(=O)c23)c1 [Ex-22]

- fold selectivity for MAP4K4 over GLK/MAP4K3 (GLK/MAP4K3): (6309) fold
- IC50 (GLK/MAP4K3): 31600 nM
- fold selectivity for MAP4K4 over FLT3 (FLT3): (3162) fold
- IC50 (FLT3): 15800 nM
- fold selectivity for MAP4K4 over ABL1 (ABL1): (398) fold
- IC50 (ABL1): 2000 nM
- fold selectivity for MAP4K4 over KHS/MAP4K5 (KHS/MAP4K5): (199) fold
- IC50 (KHS/MAP4K5): 1000 nM
- fold selectivity for MAP4K4 over MLK3/MAP3K11 (MLK3/MAP3K11): (39) fold
- IC50 (MLK3/MAP3K11): 200 nM
- IC50 (MINK1/MAP4K6): 7.94 nM
- fold selectivity for MAP4K4 over VEGFR (VEGFR): (6309) fold
- pIC50 VEGFR (VEGFR): 4.5
- fold selectivity for MAP4K4 over GCK/MAP4K2 (GCK/MAP4K2): (79) fold
- IC50 (GCK/MAP4K2): 398 nM
- fold selectivity for MAP4K4 over MLK1/MAP3K9 (MLK1/MAP3K9): (39) fold
- IC50 (MLK1/MAP3K9): 200 nM
- fold selectivity for MAP4K4 over NUAK (NUAK): (501) fold
- pIC50 NUAK (NUAK): 5.6
- fold selectivity for MAP4K4 over Aurora B (Aurora B): (1258) fold
- IC50 (Aurora B): 6310 nM
- IC50 [2, 3]: ≤ 100 nM
- IC50 [2, 4]: 5.01 nM
- IC50 (TNIK/MAP4K7): 20 nM
Structure (SMILES): O=c1[nH]cnc2c1c(-c1ccc(OCCO)cc1F)cn2-c1ccccc1 [Ex-56, 5-[2-Fluoro-4-(2-hydroxy-ethoxy)-phenyl]-7-phenyl-3,7-dihydro-pyrrolo[2,3-d]pyrimidin-4-one]

- IC50 [2, 3]: ≤ 100 nM
Structure (SMILES): O=c1[nH]cnc2c1c(-c1ccc(OCCCO)cc1)cn2-c1ccccc1 [Ex-36]

Structure (SMILES): CC(C)(O)CCOc1ccc(-c2cn(-c3ccccc3)c3nc[nH]c(=O)c23)cc1 [Ex-40, 5-(4-(3-hydroxy-3-methylbutoxy)phenyl)-7-phenyl-3,7-dihydro-4H-pyrrolo[2,3-d]pyrimidin-4-one]
- EC50 [1]: < 1000 nM
- IC50 [2, 3]: ≤ 100 nM

- IC50 [2, 3]: > 1000 nM
Structure (SMILES): CS(=O)(=O)c1ccc(-n2cc(-c3ccccc3)c3c(=O)[nH]cnc32)cc1 [Ex-3]

- IC50 [2, 3]: ≤ 100 nM
Structure (SMILES): O=c1[nH]cnc2c1c(-c1ccc(OCC(O)CN3CCOCC3)cc1)cn2-c1ccccc1 (stereo not drawn) [Ex-42]

- IC50 [2, 3]: ≤ 100 nM
Structure (SMILES): O=C(O)Cc1ccc(-c2cn(-c3ccccc3)c3nc[nH]c(=O)c23)cc1 [Ex-82, [4-(4-Oxo-7-phenyl-4,7-dihydro-3H-pyrrolo[2,3-d]pyrimidin-5-yl)-phenyl]-acetic acid]

- IC50 [2, 3]: ≤ 100 nM
Structure (SMILES): NCC(=O)Nc1ccc(-c2cn(-c3ccccc3)c3nc[nH]c(=O)c23)cc1 [Ex-76]

- IC50 [2, 3]: 100 to 1000 nM
Structure (SMILES): N#Cc1cccc(-c2cn(-c3ccccc3)c3c(=O)[nH]cnc23)c1 [Ex-100]

- IC50 [2, 3]: 100 to 1000 nM
Structure (SMILES): CC(C)(C)OC(=O)NCCOc1ccc(-c2cn(-c3ccccc3)c3nc[nH]c(=O)c23)cc1 [Ex-63]

- IC50 [2, 3]: ≤ 100 nM
Structure (SMILES): CN1CCN(CC(O)COc2ccc(-c3cn(-c4ccccc4)c4nc[nH]c(=O)c34)cc2)CC1=O (stereo not drawn) [Ex-50]

- IC50 [2, 3]: 100 to 1000 nM
Structure (SMILES): CC(=O)Nc1cccc(-c2cn(-c3ccccc3)c3nc[nH]c(=O)c23)c1 [Ex-12]
